Results reported in PubChem BioAssay (NCI).
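Method: 48-hour compound exposure of cells in 96-well plates, five concentrations, linear interpolation of endpoints. TGI denotes the concentration required for complete inhibition of growth.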

Tests used:
Assay in all cases: DTP human tumour cell line panel, 48 h
OVCAR-3 ovarian = system: OVCAR-3 ovarian
HS 578T breast = system: HS 578T breast
KM12 colon = system: KM12 colon
786-0 renal = system: 786-0 renal
NCI-H226 lung = system: NCI-H226 lung
A549 NSCLC = system: A549 NSCLC
TK-10 renal = system: TK-10 renal
OVCAR-5 ovarian = system: OVCAR-5 ovarian
K-562 leukemia = system: K-562 leukemia
M14 melanoma = system: M14 melanoma
MALME-3M melanoma = system: MALME-3M melanoma
MCF7 breast = system: MCF7 breast
T-47D breast = system: T-47D breast
MDA-MB-231 breast = system: MDA-MB-231 breast
HCC-2998 colon = system: HCC-2998 colon
EKVX NSCLC = system: EKVX NSCLC
SR leukemia = system: SR leukemia
CCRF-CEM leukemia = system: CCRF-CEM leukemia
OVCAR-8 ovarian = system: OVCAR-8 ovarian
SN12C renal = system: SN12C renal

| SMILES | TGI (OVCAR-3 ovarian) [µM] | TGI (HS 578T breast) [µM] | TGI (KM12 colon) [µM] | TGI (786-0 renal) [µM] | TGI (NCI-H226 lung) [µM] | TGI (A549 NSCLC) [µM] | TGI (TK-10 renal) [µM] | TGI (OVCAR-5 ovarian) [µM] | TGI (K-562 leukemia) [µM] | TGI (M14 melanoma) [µM] | TGI (MALME-3M melanoma) [µM] | TGI (MCF7 breast) [µM] | TGI (T-47D breast) [µM] | TGI (MDA-MB-231 breast) [µM] | TGI (HCC-2998 colon) [µM] | TGI (EKVX NSCLC) [µM] | TGI (SR leukemia) [µM] | TGI (CCRF-CEM leukemia) [µM] | TGI (OVCAR-8 ovarian) [µM] | TGI (SN12C renal) [µM] |
| --- | --- | --- | --- | --- | --- | --- | --- | --- | --- | --- | --- | --- | --- | --- | --- | --- | --- | --- | --- | --- |
| N#CC1(C#N)[C@@H]2CCC=C(Sc3ccccc3)[C@@H]21 | 31.1 | > 100 | 28.5 | 35.5 | 36.3 | 52.8 | 28.9 | 32 | > 100 | 26.5 | 32 | 23.4 | 52.4 | 43.7 | 32 | 35.4 | > 100 | 63.1 | 31.2 | 32.3 |
| COc1ccc(N/N=C/C2=CC(C)(C)C(C#N)(C#N)C(O)=C2C#N)cc1 | > 100 | > 100 | > 100 | > 100 | > 100 | > 100 | > 100 | > 100 | > 100 | > 100 | > 100 | > 100 | > 100 | > 100 |  | > 100 | 82.3 | > 100 | > 100 | > 100 |
| COc1ccc2c(=O)c3c([nH]c2c1)OCC3=O |  | > 100 | > 100 | > 100 | > 100 |  | > 100 |  | > 100 | > 100 |  | > 100 | > 100 | > 100 | > 100 | > 100 | > 100 | > 100 | > 100 |  |
| CN(/N=C/c1ccc(Cl)c(Cl)c1)C1=NCCCCN1 | > 100 | > 100 | 47.5 | 47.8 | 39.2 | > 100 | > 100 | > 100 | 69.3 | 29.9 | 32.5 | 54.3 | > 100 | > 100 | 63.9 | > 100 | > 100 | 83.5 | > 100 | > 100 |
| Cc1ccc(N=C2OP(=O)(Nc3ccc(C)cc3)Oc3ccccc32)cc1 (centres undefined) | > 100 | > 100 | > 100 | > 100 | > 100 | > 100 | > 100 | > 100 | > 100 | > 100 | > 100 | > 100 | > 100 | > 100 | > 100 | > 100 | > 100 | > 100 | > 100 | > 100 |
| [N-]=[N+]=Nc1c(-c2ccccc2)c(=O)n(-c2ccccc2)c2ccccc12 | > 100 | > 100 | > 100 | > 100 | > 100 | > 100 | > 100 |  | > 100 | > 100 | > 100 | > 100 | 82.2 | > 100 | > 100 | 48.8 | > 100 | > 100 | > 100 | > 100 |
| COc1ccc(NC(=O)C(C#N)=C(SC)SC)cc1 | > 100 | > 100 |  | > 100 | > 100 | > 100 | > 100 | > 100 | > 100 | > 100 | > 100 | > 100 | > 100 | > 100 | > 100 | > 100 | > 100 | > 100 |  | > 100 |
| O=C(O)/C=C/c1ccc(OS(=O)(=O)O)cc1 | > 100 | > 100 | > 100 | > 100 | > 100 | > 100 | > 100 | > 100 | > 100 | > 100 | > 100 | > 100 | > 100 | > 100 | > 100 | > 100 | > 100 |  | > 100 | > 100 |
| CC(C)=NOC(=O)OC[C@H]1O[C@@H](n2cnc3c(N)ncnc32)C(O)C1O (some centres undefined) | > 100 | > 100 | > 100 | > 100 | > 100 | > 100 | > 100 | > 100 | > 100 | > 100 | > 100 | > 100 | > 100 | > 100 | > 100 | > 100 | > 100 | > 100 | > 100 | > 100 |
| CCOC(=O)[C@@]1(C(C)=O)CC(C)=C(C)C[S@]1=O | > 100 | > 100 | > 100 | > 100 | > 100 | > 100 | > 100 | > 100 | > 100 | > 100 | > 100 | > 100 | > 100 | > 100 | > 100 | > 100 | > 100 |  | > 100 | > 100 |
| COCN1C(=N)C(C(=O)OC(C)(C)C)=C2C=C(O)C=CC21C (centres undefined) |  | 82.9 | 30.5 | 24.7 | 30.6 | 34.9 | 26.2 | 32.5 | > 100 | 29.5 | 21.3 | 22.9 | 9.93 | 29 | 40.5 | 37.9 | > 100 | 50.7 | 55.7 | 73.9 |
| Cc1nc(C)c(N2CCN(S(N)(=O)=O)CC2)c(=O)[nH]1 | > 100 | > 100 | > 100 | > 100 | > 100 | > 100 | > 100 |  | > 100 | > 100 | > 100 | > 100 | > 100 | > 100 | > 100 | > 100 | > 100 | > 100 | > 100 | > 100 |
| Cc1nc(-n2nc(-c3ccccc3)cc2-c2ccccc2)sc1C(=O)/C=C/c1ccc([N+](=O)[O-])cc1 | 45.3 | > 100 | 38.1 | 29.8 | > 100 | > 100 | > 66.8 | > 100 | > 70.6 | 94.7 | > 100 | > 100 | > 100 | > 100 | 38.1 | > 100 | 24.2 | 48.1 | > 31.6 | > 76.4 |
| CCOC(=O)[C@@H](NC(=O)OC(C)(C)C)[C@@H](O)C(=O)OCC | > 100 | > 100 | > 100 | > 100 | > 100 | > 100 | > 100 | > 100 | > 100 | > 100 | > 100 | > 100 | > 100 | > 100 | > 100 | > 100 | > 100 | > 100 | > 100 | > 100 |
| CC(=O)C1C(=O)C(C(C)=O)C2C3C=CC(C3)C12 (centres undefined) | > 100 | > 100 | > 100 | > 100 | > 100 | > 100 | > 100 | > 100 | > 100 |  | > 100 | > 100 | > 100 | > 100 | > 100 |  | > 100 | > 100 | > 100 | > 100 |
| O=C(c1ccccc1)N(CCCCNC(=O)C(F)(F)F)CCCNC(=O)C(F)(F)F |  | > 100 | > 100 | > 100 | > 100 | > 100 | > 100 | > 100 | > 100 | > 100 | > 100 | > 100 | > 100 | > 100 | > 100 | > 100 | > 100 | > 100 | > 100 | > 100 |
| COC(=O)CCC(=O)c1ccc2c(c1)CC1(C2)Cc2ccc(C(=O)CCC(=O)OC)cc2C1 | > 100 | > 100 | > 100 | > 100 |  | > 100 | > 100 | > 100 | > 100 | > 100 | > 100 | > 100 | > 100 | > 100 | > 100 | > 100 | 88.5 | > 100 | > 100 | > 100 |
| OCC(O)COCn1cc(Cn2ncc3c(NCc4ccccc4)ncnc32)nn1 (centres undefined) | > 100 | 47.9 | > 100 | > 100 | > 100 | > 100 | > 100 | > 100 |  | > 100 |  | > 100 | > 100 | > 100 | > 100 | > 100 | > 100 | > 100 | > 100 | > 100 |
| C=CCc1cccc2cc(C(=O)Nc3ccc(C)cc3)c(=N)oc12 | > 100 | > 100 | > 100 | > 100 | > 100 | > 100 |  | > 100 | > 100 | > 100 | > 100 | > 100 | > 100 | > 100 | > 100 | > 100 | > 100 | > 100 | > 100 | > 100 |
| O=C1CCC2(CC1CCS(=O)c1ccccc1)OCCO2 (centres undefined) | > 100 | > 100 | > 100 | > 100 | > 100 | > 100 | > 100 | > 100 | > 100 | > 100 | > 100 | > 100 | > 100 | > 100 | > 100 | > 100 | > 100 | > 100 | > 100 |  |
